Assay results published in patent publication US6734199B1, “Substituted benzylthiazolidine-2, 4-dione derivatives” (Kyorin Pharmaceutical Co., Ltd., priority 1999, dated 2004).
Like-named read-outs stand apart in the source and are kept apart here.

Assays:
[1] = target: T1, human type PPAR α ligand-binding domain fused with yeast transcription factor DNA-binding domain (Homo sapiens, UniProt Q07869); test: Test of transactivation on peroxisome proliferator-activated receptor α (GAL4 DNA-binding domain/PPAR ligand-binding domain reporter in CHO cells)
T1 sequence (Q07869 239-466 limits assumed): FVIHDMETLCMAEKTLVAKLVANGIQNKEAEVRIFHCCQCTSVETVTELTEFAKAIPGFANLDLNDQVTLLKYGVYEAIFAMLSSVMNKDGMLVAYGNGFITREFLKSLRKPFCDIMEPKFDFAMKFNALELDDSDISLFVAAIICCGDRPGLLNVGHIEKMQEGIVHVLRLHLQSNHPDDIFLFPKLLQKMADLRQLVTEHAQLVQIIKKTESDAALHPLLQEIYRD
Description: (§1) Test of Transactivation on Peroxisome Proliferator-activated Receptors α and γ
(§2) After 24 hours, CAT activity and β-galactosidase activity were measured.

[2] = target: T2, human type PPAR γ ligand-binding domain fused with yeast transcription factor DNA-binding domain (Homo sapiens, UniProt P37231); test: Test of transactivation on peroxisome proliferator-activated receptor γ (GAL4 DNA-binding domain/PPAR ligand-binding domain reporter in CHO cells)
T2 sequence (P37231 238-503 limits assumed): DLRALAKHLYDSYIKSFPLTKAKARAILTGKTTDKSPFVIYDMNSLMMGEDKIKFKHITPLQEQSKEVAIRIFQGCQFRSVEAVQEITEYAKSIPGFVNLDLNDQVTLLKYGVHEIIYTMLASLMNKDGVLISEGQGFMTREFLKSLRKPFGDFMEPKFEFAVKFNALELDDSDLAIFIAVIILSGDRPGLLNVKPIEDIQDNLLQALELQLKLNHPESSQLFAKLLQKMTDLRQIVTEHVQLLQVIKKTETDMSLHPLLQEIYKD
Description: as §1, §2

| Structure (SMILES) | melting point | EC50 ([1]; read-out: Transactivation action PPARα EC50, CHO cells, 24 hours, CAT activity with β-galactosidase internal standard) | EC50 [1] | EC50 [2] |
| --- | --- | --- | --- | --- |
| COc1ccc(CC2SC(=O)NC2=O)cc1C(=O)NCc1ccc(Oc2ccccc2)cc1 (stereo not drawn) (hydrate or solvate) [Example 3] | 87 to 89 °C | – | – | – |
| COc1ccc(CC2SC(=O)NC2=O)cc1C(=O)NCc1ccc(Oc2ccccc2)cc1 (stereo not drawn) [Example 3] | – | – | 240 nM | 240 nM |

More lines, now with the values ahead:

| melting point | EC50 ([1]; read-out: Transactivation action PPARα EC50, CHO cells, 24 hours, CAT activity with β-galactosidase internal standard) | EC50 [1] | EC50 [2] | Structure (SMILES) |
| --- | --- | --- | --- | --- |
| – | 1300 nM | – | – | CCCCC/C=C\C/C=C\C=C\[C@@H](O)C/C=C\CCCC(=O)O [(8S)-HETE, reference compound] |
| 131 to 132.5 °C | – | 440 nM | – | COc1ccc(CC2SC(=O)NC2=O)cc1C(=O)NCc1ccc(OCc2ccccc2)cc1 (stereo not drawn) [Example 1] |
| 170.5 to 172 °C | – | 630 nM | 6800 nM | COc1ccc(CC2SC(=O)NC2=O)cc1C(=O)NCc1ccc(-c2ccccc2)cc1 (stereo not drawn) [Example 2, N-[(Biphenyl-4-yl)Methyl]-5-[(2.4-Dioxothiazolidin-5-yl)Methyl]-2-Methloybenzamide] |
